Assay results: publication PMC5974403, “The novel histone de acetylase 6 inhibitor, MPT0G211, ameliorates tau phosphorylation and cognitive deficits in an Alzheimer’s disease model” (Cell Death & Disease, 2018)

Columns and labels:
Neuro-2a cells = assay: Western blot of acetyl-α-tubulin and acetyl-histone, Neuro-2a cells; format: cell-based, mouse; settings: 0.1 to 1 μM, 24 h
Experimental: (§1) Cell viabilities were determined by MTT assay. The results represent the mean ± SEM of three independent experiments; *p < 0.05, **p < 0.01 and ***p < 0.001 compared with controls TEXT PRINTED IN THE PICTURE: (A) no label printed: M.W. 293.32
(§2) Cells (1 × 10^6) were incubated for 10 min at 4 °C in lysis buffer (20 mM HEPES, pH 7.4, 2 mM EGTA, 50 mM β-glycerophosphate, 0.1% Triton X-100, 10% glycerol, 1 mM dithiothreitol, 1 μg/mL leupeptin, 5 μg/mL aprotinin, 1 mM phenylmethylsulfonyl fluoride, and 1 mM sodium orthovanadate), scraped from the plate, incubated on ice for 10 min, and centrifuged at 17,000 × g for 30 min at 4 °C. Protein samples (30 μg) were electrophoresed through sodium dodecyl sulfate-polyacrylamide gels (SDS-PAGE) and transferred onto a nitrocellulose membrane, which was then blocked by incubation for 30 min at room temperature with 5% fat-free milk in PBS. Immunoblotting was performed by overnight incubation at 4 °C with primary antibodies in PBS, followed by incubation for 1 h at room temperature with HRP-conjugated secondary antibodies. Bound antibodies were measured using ECL reagent (T-Pro Biotechnology, New Taipei City, Taiwan), and the membrane was placed on a photographic film. Cell lysates (30 μg) were incubated with antibodies (1 μg each) and protein A/G agarose beads overnight at 4 °C. The precipitated beads were washed three times with 1 mL of ice-cold cell lysis buffer, and bound immune complexes were separated using 8% SDS-PAGE, followed by immunoblotting using the indicated primary antibody.

SH-SY5Y cells [1] = assay: MTT cell viability, SH-SY5Y; format: cell-based, human; settings: 24 h, 0.01–1 μM
Experimental: as §1

SH-SY5Y cells [2] = assay: Subcellular fractionation of tau pools (tau aggregation) in transfected SH-SY5Y cells; format: cell-based, human; settings: SH-SY5Y transfected hAPP 695 + hTau P301L, 0.1 μM, 24 h
Experimental: The fractionation scheme used to separate different cellular pools of tau, and the western blot analysis of the effects of the compounds on tau pools generated using the fractionation scheme are presented. b, d SH-SY5Y cells were transfected for 24 h with pCAX APP 695 and pRK5-EGFP-Tau P301L, incubated with or without MPT0G211 or ACY-1215 (0.1 μM) for another 24 h, and then the cells were fixed and stained by propidium iodide (b) or annexin V/PI double staining (d) and analyzed by flow cytometry. c, e Percentages of the subG1 phase (c) or annexin V-positive cells (e) in response to drug treatment as explained in (b). Results are presented as the mean ± SEM. *p < 0.05 and **p < 0.01 compared with the control group; ^#p < 0.05 and ^##p < 0.01 compared with the indicated groups TEXT PRINTED IN THE PICTURE: (B) MPT0G211: hAPP + hTauP301L: SubG1 10.91% | (B) ACY-1215: hAPP + hTauP301L: SubG1 15.40% | (D) MPT0G211: hAPP + hTauP301L: 9.56%; hAPP + hTauP301L: 11.26% | (D) ACY-1215: hAPP + hTauP301L: 9.28%; hAPP + hTauP301L: 11.25%
This assay followed a published method. Briefly, cells (1 × 10^7) were treated with drugs for 24 h and scraped off into breaking buffer (0.25 M sucrose, 10 mM HEPES, pH 7.2, 1 mM MgAc2, and protease inhibitors). […] Samples containing equal amounts of protein were analyzed using SDS-PAGE.

SH-SY5Y cells [3] = assay: Immunoprecipitation/immunoblot of HDAC6, acetyl-lysine, ubiquitin in transfected SH-SY5Y cells; format: cell-based, human; settings: 24 h
Experimental: Fig. 4 MPT0G211 increased the ubiquitination of p-tau and degradation by proteasome. a, b SH-SY5Y and Neuro-2a cells were transfected for 24 h with pCAX APP 695 and pRK5-EGFP-Tau P301L and incubated with MPT0G211 or ACY-1215 (0.1 μM) for another 24 h, after which the cell lysates were immunoprecipitated with antibodies against HDAC6, acetyl-lysine (a) or ubiquitin (b) and were subjected to immunoblotting. c Cells were transfected with pCAX APP 695 and pRK5-EGFP-Tau P301L for 24 h and were then incubated with MPT0G211 (0.01–1 μM) for another 24 h. Immunoblots reveal polyubiquitin complexes. d pCAX APP 695 or pRK5-EGFP-Tau P301L were used to transfect the cells for 24 h, incubated with or without MG132 (1 μM) for 30 min, and were then treated with MPT0G211 or ACY-1215 (0.1 μM) for another 24 h. Cell lysates were prepared for western blot analysis of the indicated proteins
as §2

3×Tg-AD mice = assay: Morris water maze in 3×Tg-AD mice; format: in vivo, mouse; settings: 50 mg/kg oral daily for 3 months
Experimental: Red arrowheads indicate phosphorylated-tau proteins. Scale bar = 25 μm. Data represent the mean ± SEM. *p < 0.05, **p < 0.01, and ***p < 0.001 compared with the basal or control group; ^#p < 0.05, ^##p < 0.01, and ^###p < 0.001 compared with the vehicle-treated group
Six-month-old female B6;129-Psen1^tm1Mpm Tg(APPSwe,tauP301L)1Lfa/Mmjax (3xTg-AD) mice and control B6129SF2/J mice were obtained from the Jackson Laboratory (Bar Harbor, ME, USA), orally administered MPT0G211 (50 mg/kg) or memantine (30 mg/kg, dissolved in water) once daily for 3 months, and then subjected to Morris water maze. The assay that using 3xTg-AD mice was entrusted to carry out by Development Center for Biotechnology (New Taipei City, Taiwan).
The water maze was constructed as a white circular pool filled with water, and the water temperature was maintained at 23–27 °C. A white platform was established and submerged 5 cm below the surface of the water and styrofoam beads were added to make the platform invisible. Animals were trained by permitting them to stay for 10 s upon reaching the platform. […] Training was performed twice daily and 4 days during 1 week. Test trials were repeated twice with a 20 min interval for each animal. Scopolamine (1 mg/kg) was injected intraperitoneally 90 min before the test trial to induce AD-like features, except for the control group.

Compound: O=C(NO)c1ccc(CNc2cccc3cccnc23)cc1 [MPT0G211, N-hydroxy-4-((quinolin-8-ylamino)methyl)benzamide]
- acetylation of histones (Neuro-2a cells): without affecting the acetylation of histones
- acetylation of α-tubulin (Neuro-2a cells): concentration-dependently increased
- cytotoxicity (MTT cell viability) (SH-SY5Y cells [1]): did not result in any significant cytotoxicity
- levels of aggregated tau (SH-SY5Y cells [2]): significantly reduced
- coimmunoprecipitation of ubiquitin with p-tau (Ser396) (SH-SY5Y cells [3]; 0.1 μM): clearly increased
- HDAC6/Hsp90 binding (SH-SY5Y cells [3]; 0.1 μM, IP): downregulation
- acetylation of Hsp90 (SH-SY5Y cells [3]; 0.1 μM, IP): clearly enhanced
- level of polyubiquitinated proteins (SH-SY5Y cells [3]; 0.01–1 μM): significantly accumulated
- memory impairment (Morris water maze escape latency) (3×Tg-AD mice): significantly ameliorated
